Experiments:
Experiment in all cases: cells
[1] = system: CAL-33; format: functional, cell-based, Homo sapiens; details: Homo sapiens, CAL-33;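 note: growth inhibition of CAL-33 cells, read out with a cell viability assay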
Description: SANGER: Inhibition of human CAL-33 cell growth in a cell viability assay.

[2] = system: NEC8; format: functional, cell-based, Homo sapiens; details: Homo sapiens, NEC8;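 note: growth inhibition of human NEC8 cells, read out by a cell viability assay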
Description: SANGER: Inhibition of human NEC8 cell growth in a cell viability assay.

[3] = system: LU-139; format: functional, cell-based; details: Homo sapiens
Description: SANGER: Inhibition of human LU-139 cell growth in a cell viability assay.

[4] = system: MeWo; format: functional, cell-based, Homo sapiens; details: Homo sapiens, MeWo;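 note: growth inhibition of MeWo cells, determined by a cell viability readout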
Description: SANGER: Inhibition of human Mewo cell growth in a cell viability assay.

[5] = system: RVH-421; format: functional, cell-based, Homo sapiens; details: Homo sapiens, RVH-421
Description: SANGER: Inhibition of human RVH-421 cell growth in a cell viability assay.

[6] = system: GP5d; format: functional, cell-based, Homo sapiens; details: Homo sapiens, GP5d;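 note: growth inhibition of human GP5d cells, read out with a cell viability assay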
Description: SANGER: Inhibition of human GP5d cell growth in a cell viability assay.

[7] = system: OE33; format: functional, cell-based, Homo sapiens; details: Homo sapiens, OE33;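 note: growth inhibition of human OE33 cells, measured by a cell viability assay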
Description: SANGER: Inhibition of human OE33 cell growth in a cell viability assay.

[8] = system: SN12C; format: functional, cell-based, Homo sapiens; details: Homo sapiens, SN12C;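 note: growth inhibition of human SN12C cells, measured by a cell viability assay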
Description: SANGER: Inhibition of human SN12C cell growth in a cell viability assay.

[9] = system: OS-RC-2; format: functional, cell-based, Homo sapiens; details: Homo sapiens, OS-RC-2;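 note: growth inhibition of human OS-RC-2 cells, measured by a cell viability assay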
Description: SANGER: Inhibition of human OS-RC-2 cell growth in a cell viability assay.

[10] = system: NH-12; format: functional, cell-based, Homo sapiens; details: Homo sapiens, NH-12;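 note: growth inhibition of NH-12 cells, read out with a cell viability assay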
Description: SANGER: Inhibition of human NH-12 cell growth in a cell viability assay.

[11] = system: HCC2157; format: functional, cell-based; details: Homo sapiens;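 note: growth inhibition of the cancer cell line, read out as cell viability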
Description: SANGER: Inhibition of human HCC2157 cell growth in a cell viability assay.

[12] = system: COLO-741; format: functional, cell-based, Homo sapiens; details: Homo sapiens, COLO-741
Description: SANGER: Inhibition of human COLO-741 cell growth in a cell viability assay.

[13] = system: LC-2-ad; format: functional, cell-based, Homo sapiens; details: Homo sapiens, LC-2-ad;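 note: growth inhibition of human LC-2-ad cells, read out with a cell viability assay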
Description: SANGER: Inhibition of human LC-2-ad cell growth in a cell viability assay.

[14] = system: EFO-27; format: functional, cell-based, Homo sapiens; details: Homo sapiens, EFO-27;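 note: growth inhibition of EFO-27 cells, read out with a cell viability assay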
Description: SANGER: Inhibition of human EFO-27 cell growth in a cell viability assay.

[15] = system: COLO-800; format: functional, cell-based, Homo sapiens; details: Homo sapiens, COLO-800;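 note: growth inhibition of COLO-800 cells, read out with a cell viability assay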
Description: SANGER: Inhibition of human COLO-800 cell growth in a cell viability assay.

[16] = system: CP66-MEL; format: functional, cell-based, Homo sapiens; details: Homo sapiens, CP66-MEL;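 note: growth inhibition of CP66-MEL cells determined in a cell viability assay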
Description: SANGER: Inhibition of human CP66-MEL cell growth in a cell viability assay.

[17] = system: AN3-CA; format: functional, cell-based; details: Homo sapiens;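 note: growth inhibition of human AN3-CA cells measured by a cell viability assay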
Description: SANGER: Inhibition of human AN3-CA cell growth in a cell viability assay.

[18] = system: TE-12; format: functional, cell-based; details: Homo sapiens;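 note: growth inhibition of TE-12 cells, read out by a cell viability assay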
Description: SANGER: Inhibition of human TE-12 cell growth in a cell viability assay.

[19] = system: HT-1080; format: functional, cell-based, Homo sapiens; details: Homo sapiens, HT-1080
Description: SANGER: Inhibition of human HT-1080 cell growth in a cell viability assay.

[20] = system: WM-115; format: functional, cell-based, Homo sapiens; details: Homo sapiens, WM-115
Description: SANGER: Inhibition of human WM-115 cell growth in a cell viability assay.

[21] = system: PSN1; format: functional, cell-based, Homo sapiens; details: Homo sapiens, PSN1;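 note: suppression of growth of human PSN1 cells, read out by a cell viability assay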
Description: SANGER: Inhibition of human PSN1 cell growth in a cell viability assay.

[22] = system: CAL-54; format: functional, cell-based, Homo sapiens; details: Homo sapiens, CAL-54;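 note: growth inhibition of CAL-54 cells, read out by a viability measurement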
Description: SANGER: Inhibition of human CAL-54 cell growth in a cell viability assay.

[23] = system: MC-IXC; format: functional, cell-based, Homo sapiens; details: Homo sapiens, MC-IXC;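 note: growth inhibition of MC-IXC cells, read out with a cell viability assay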
Description: SANGER: Inhibition of human MC-IXC cell growth in a cell viability assay.

[24] = system: KYSE-510; format: functional, cell-based, Homo sapiens; details: Homo sapiens, KYSE-510;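 note: cell viability readout used to measure how strongly growth of the cell line is suppressed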
Description: SANGER: Inhibition of human KYSE-510 cell growth in a cell viability assay.

[25] = system: M059J; format: functional, cell-based, Homo sapiens; details: Homo sapiens, M059J;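 note: growth inhibition of M059J cells, read out with a cell viability assay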
Description: SANGER: Inhibition of human M059J cell growth in a cell viability assay.

[26] = system: PA-1; format: functional, cell-based, Homo sapiens; details: Homo sapiens, PA-1;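 note: IC50 for suppression of PA-1 cell proliferation, determined with a cell viability read-out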
Description: SANGER: Inhibition of human PA-1 cell growth in a cell viability assay.

[27] = system: NCI-H1563; format: functional, cell-based, Homo sapiens; details: Homo sapiens, NCI-H1563;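 note: growth inhibition of human NCI-H1563 cells, read out with a cell viability assay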
Description: SANGER: Inhibition of human NCI-H1563 cell growth in a cell viability assay.

[28] = system: CAL-39; format: functional, cell-based, Homo sapiens; details: Homo sapiens, CAL-39;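 note: cell viability assay measuring growth inhibition of CAL-39 cells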
Description: SANGER: Inhibition of human CAL-39 cell growth in a cell viability assay.

[29] = system: NCI-H1304; format: functional, cell-based; details: Homo sapiens;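 note: growth inhibition of the cancer cell line, measured in a cell viability assay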
Description: SANGER: Inhibition of human NCI-H1304 cell growth in a cell viability assay.

[30] = system: KNS-81-FD; format: functional, cell-based, Homo sapiens; details: Homo sapiens, KNS-81-FD;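 note: growth inhibition of KNS-81-FD cells, read out with a cell viability assay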
Description: SANGER: Inhibition of human KNS-81-FD cell growth in a cell viability assay.

[31] = system: Mo; format: functional, cell-based; details: Homo sapiens
Description: SANGER: Inhibition of human Mo-T cell growth in a cell viability assay.

[32] = system: GB-1; format: functional, cell-based, Homo sapiens; details: Homo sapiens, GB-1;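 note: growth of GB-1 cells judged by a viability assay, IC50 marks the concentration inhibiting growth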
Description: SANGER: Inhibition of human GB-1 cell growth in a cell viability assay.

[33] = system: CAPAN-1; format: functional, cell-based, Homo sapiens; details: Homo sapiens, CAPAN-1;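 note: growth suppression of CAPAN-1 cells, read out by a cell viability assay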
Description: SANGER: Inhibition of human CAPAN-1 cell growth in a cell viability assay.

[34] = system: BV-173; format: functional, cell-based; details: Homo sapiens
Description: SANGER: Inhibition of human BV-173 cell growth in a cell viability assay.

[35] = system: ACN; format: functional, cell-based, Homo sapiens; details: Homo sapiens, ACN;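 note: growth inhibition of the human ACN cell line, read out via cell viability testing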
Description: SANGER: Inhibition of human ACN cell growth in a cell viability assay.

[36] = system: SCC-4; format: functional, cell-based, Homo sapiens; details: Homo sapiens, SCC-4;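 note: growth inhibition of human SCC-4 cells, read out as cell viability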
Description: SANGER: Inhibition of human SCC-4 cell growth in a cell viability assay.

[37] = system: HAL-01; format: functional, cell-based; details: Homo sapiens;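 note: growth inhibition of human HAL-01 cells, read out with a cell viability assay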
Description: SANGER: Inhibition of human HAL-01 cell growth in a cell viability assay.

[38] = system: DU-4475; format: functional, cell-based; details: Homo sapiens
Description: SANGER: Inhibition of human DU-4475 cell growth in a cell viability assay.

[39] = system: NB12; format: functional, cell-based, Homo sapiens; details: Homo sapiens, NB12;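 note: growth inhibition of human NB12 cells, read out by a cell viability assay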
Description: SANGER: Inhibition of human NB12 cell growth in a cell viability assay.

[40] = system: SK-HEP1; format: functional, cell-based, Homo sapiens, SK-HEP-1; details: Homo sapiens, SK-HEP1;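 note: cell viability readout used to quantify reduction in proliferation of human SK-HEP-1 cells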
Description: SANGER: Inhibition of human SK-HEP-1 cell growth in a cell viability assay.

[41] = system: HDLM-2; format: functional, cell-based; details: Homo sapiens;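 note: cell viability assay measuring suppression of HDLM-2 proliferation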
Description: SANGER: Inhibition of human HDLM-2 cell growth in a cell viability assay.

[42] = system: KYSE-140; format: functional, cell-based, Homo sapiens; details: Homo sapiens, KYSE-140;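 note: cell viability assay measuring growth inhibition in human KYSE-140 cells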
Description: SANGER: Inhibition of human KYSE-140 cell growth in a cell viability assay.

[43] = system: SCH; format: functional, cell-based, Homo sapiens; details: Homo sapiens, SCH;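 note: growth inhibition of human SCH cells, read out in a cell viability assay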
Description: SANGER: Inhibition of human SCH cell growth in a cell viability assay.

[44] = system: SK-OV-3; format: functional, cell-based, Homo sapiens; details: Homo sapiens, SK-OV-3;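 note: growth inhibition of SK-OV-3 human cells, read out with a cell viability assay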
Description: SANGER: Inhibition of human SK-OV-3 cell growth in a cell viability assay.

[45] = system: KU-19-19; format: functional, cell-based, Homo sapiens; details: Homo sapiens, KU-19-19
Description: SANGER: Inhibition of human KU-19-19 cell growth in a cell viability assay.

[46] = system: SK-LMS-1; format: functional, cell-based, Homo sapiens; details: Homo sapiens, SK-LMS-1;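 note: growth inhibition of human SK-LMS-1 cells, read out with a cell viability assay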
Description: SANGER: Inhibition of human SK-LMS-1 cell growth in a cell viability assay.

[47] = system: DBTRG-05MG; format: functional, cell-based, Homo sapiens; details: Homo sapiens, DBTRG-05MG;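 note: cell viability assay measuring growth inhibition of human DBTRG-05MG cells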
Description: SANGER: Inhibition of human DBTRG-05MG cell growth in a cell viability assay.

[48] = system: TE-5; format: functional, cell-based, Homo sapiens; details: Homo sapiens, TE-5;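 note: inhibition of cell growth, read out by a cell viability assay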
Description: SANGER: Inhibition of human TE-5 cell growth in a cell viability assay.

[49] = system: OVCAR-5; format: functional, cell-based, Homo sapiens; details: Homo sapiens, OVCAR-5;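 note: growth inhibition of human OVCAR-5 cells, read out with a cell viability assay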
Description: SANGER: Inhibition of human OVCAR-5 cell growth in a cell viability assay.

[50] = system: LK-2; format: functional, cell-based, Homo sapiens; details: Homo sapiens, LK-2;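 note: growth inhibition of LK-2 cells, read out with a viability assay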
Description: SANGER: Inhibition of human LK-2 cell growth in a cell viability assay.

Question: What does the source list for `CN(c1ncccc1CNc1nc(Nc2ccc3c(c2)CC(=O)N3)ncc1C(F)(F)F)S(C)(=O)=O` [PF-00562271]?
Answer: IC50 [1]: 1130 nM; IC50 [2]: > 2560 nM; IC50 [3]: > 2560 nM; IC50 [4]: > 2560 nM; IC50 [5]: > 2560 nM; IC50 [6]: > 2560 nM; IC50 [7]: > 2560 nM; IC50 [8]: > 2560 nM; IC50 [9]: > 2560 nM; IC50 [10]: > 2560 nM; IC50 [11]: > 2560 nM; IC50 [12]: > 2560 nM; IC50 [13]: 2270 nM; IC50 [14]: 2520 nM; IC50 [15]: > 2560 nM; IC50 [16]: > 2560 nM; IC50 [17]: 1220 nM; IC50 [18]: > 2560 nM; IC50 [19]: > 2560 nM; IC50 [20]: > 2560 nM; IC50 [21]: > 2560 nM; IC50 [22]: > 2560 nM; IC50 [23]: > 2560 nM; IC50 [24]: > 2560 nM; IC50 [25]: > 2560 nM; IC50 [26]: > 2560 nM; IC50 [27]: > 2560 nM; IC50 [28]: 2420 nM; IC50 [29]: > 2560 nM; IC50 [30]: > 2560 nM; IC50 [31]: > 2560 nM; IC50 [32]: > 2560 nM; IC50 [33]: > 2560 nM; IC50 [34]: > 2560 nM; IC50 [35]: 2350 nM; IC50 [36]: > 2560 nM; IC50 [37]: > 2560 nM; IC50 [38]: 2150 nM; IC50 [39]: > 2560 nM; IC50 [40]: > 2560 nM; IC50 [41]: > 2560 nM; IC50 [42]: > 2560 nM; IC50 [43]: > 2560 nM; IC50 [44]: > 2560 nM; IC50 [45]: > 2560 nM; IC50 [46]: > 2560 nM; IC50 [47]: > 2560 nM; IC50 [48]: > 2560 nM; IC50 [49]: > 2560 nM; IC50 [50]: > 2560 nM

Question: Which IC50 [1] does the source give for `CCC1=C[C@@H]2CN(C1)Cc1c([nH]c3ccccc13)[C@@](C(=O)OC)(c1cc3c(cc1OC)N(C)[C@H]1[C@@](O)(C(=O)OC)[C@H](OC(C)=O)[C@]4(CC)C=CCN5CC[C@]31[C@@H]54)C2` [VINORELBINE] here?
Answer: The IC50 was 5.02 nM.

Question: And the IC50 [2]?
Answer: Its IC50 is 13.9 nM.

Question: What about the IC50 [3] of the same compound?
Answer: Its IC50 is 52.9 nM.

Question: What about the IC50 [4] of the same compound?
Answer: The IC50 was 15.2 nM.

Question: And the IC50 [5]?
Answer: Its IC50 is 3.88 nM.

Question: And the IC50 [6]?
Answer: Its IC50 is 7.84 nM.

Question: What about the IC50 [7] of the same compound?
Answer: The IC50 was 20.4 nM.

Question: And the IC50 [8]?
Answer: Its IC50 is 33.1 nM.

Question: What about the IC50 [9] of the same compound?
Answer: The IC50 was 34.3 nM.

Question: What about the IC50 [10] of the same compound?
Answer: The IC50 was 27 nM.

Question: What about the IC50 [11] of the same compound?
Answer: The IC50 was 18.8 nM.

Question: And the IC50 [12]?
Answer: Its IC50 is 35.7 nM.

Question: And the IC50 [13]?
Answer: The IC50 was 4.98 nM.

Question: What about the IC50 [14] of the same compound?
Answer: The IC50 was 5.79 nM.

Question: And the IC50 [15]?
Answer: Its IC50 is 17 nM.

Question: And the IC50 [16]?
Answer: Its IC50 is 45.1 nM.

Question: And the IC50 [17]?
Answer: Its IC50 is 6.27 nM.

Question: What about the IC50 [18] of the same compound?
Answer: The IC50 was over 64 nM.

Question: And the IC50 [19]?
Answer: The IC50 was 2.49 nM.

Question: And the IC50 [20]?
Answer: The IC50 was over 64 nM.

Question: And the IC50 [21]?
Answer: The IC50 was over 64 nM.

Question: And the IC50 [22]?
Answer: The IC50 was over 64 nM.

Question: And the IC50 [23]?
Answer: The IC50 was 1.49 nM.

Question: What about the IC50 [24] of the same compound?
Answer: Its IC50 is 4.19 nM.

Question: And the IC50 [25]?
Answer: The IC50 was 14.1 nM.

Question: What about the IC50 [26] of the same compound?
Answer: Its IC50 is 3.12 nM.

Question: What about the IC50 [27] of the same compound?
Answer: The IC50 was 12.8 nM.

Question: What about the IC50 [28] of the same compound?
Answer: The IC50 was 4.26 nM.

Question: What about the IC50 [29] of the same compound?
Answer: Its IC50 is 35.2 nM.

Question: And the IC50 [30]?
Answer: Its IC50 is over 64 nM.

Question: What about the IC50 [31] of the same compound?
Answer: Its IC50 is over 64 nM.

Question: And the IC50 [32]?
Answer: Its IC50 is over 64 nM.

Question: What about the IC50 [33] of the same compound?
Answer: Its IC50 is 14.2 nM.

Question: And the IC50 [34]?
Answer: Its IC50 is 30.4 nM.

Question: And the IC50 [35]?
Answer: Its IC50 is 1.33 nM.

Question: And the IC50 [36]?
Answer: Its IC50 is 2.58 nM.

Question: What about the IC50 [37] of the same compound?
Answer: The IC50 was over 64 nM.

Question: And the IC50 [38]?
Answer: The IC50 was 48.1 nM.

Question: And the IC50 [39]?
Answer: Its IC50 is 2.11 nM.

Question: And the IC50 [40]?
Answer: The IC50 was 4.52 nM.

Question: What about the IC50 [41] of the same compound?
Answer: The IC50 was 15.9 nM.

Question: And the IC50 [42]?
Answer: Its IC50 is 23.8 nM.

Question: And the IC50 [43]?
Answer: The IC50 was over 64 nM.

Question: And the IC50 [44]?
Answer: The IC50 was 8.39 nM.

Question: What about the IC50 [45] of the same compound?
Answer: The IC50 was over 64 nM.

Question: And the IC50 [46]?
Answer: The IC50 was 1.46 nM.

Question: What about the IC50 [47] of the same compound?
Answer: Its IC50 is 3.88 nM.

Question: And the IC50 [48]?
Answer: The IC50 was 11.7 nM.

Question: What about the IC50 [49] of the same compound?
Answer: The IC50 was over 64 nM.

Question: And the IC50 [50]?
Answer: The IC50 was 12.5 nM.
